In brackets after ≈: the same amount, converted by molar mass. Where two headings read alike, the source gives them in different places.
Experiments:
Type in all cases: cell-based
[1] = test system: E. coli ATCC 25922 (AECO001); assay: MIC, CLSI broth microdilution; details: for MIC: Escherichia coli; for MIC AECO001: Table 3
How it was run: (§1)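 Broth microdilution per CLSI M7-A7, with serial two-fold compound dilutions in Mueller Hinton Broth mixed 1:1 with inoculum. Colonies from a previous-day agar plate were suspended in saline to a final 5×10^5 CFU/mL. Plates were incubated 20 hours at 35° C. in ambient air.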

[2] = test system: P. aeruginosa ATCC 27853 (APAE001); assay: MIC, CLSI broth microdilution; details: Pseudomonas aeruginosa
How it was run: as §1

[3] = test system: S. marcescens ASMA003, ANT(2″) + AAC(6′); assay: MIC, aminoglycoside resistant strain; details: Table 3
Protocol: (§2) Minimum inhibitory concentrations (MIC) were determined by reference Clinical and Laboratory Standards Institute (CLSI) broth microdilution methods per M7-A7 [2006]. Quality control ranges utilizing E. coli ATCC 25922, P. aeruginosa ATCC 27853 and S. aureus ATCC 29213, and interpretive criteria for comparator agents were as published in CLSI M100-S17 [2007]. Briefly, serial two-fold dilutions of the test compounds were prepared at 2× concentration in Mueller Hinton Broth. The compound dilutions were mixed in 96-well assay plates in a 1:1 ratio with bacterial inoculum. The inoculum was prepared by suspension of a colony from an agar plate that was prepared the previous day. Bacteria were suspended in sterile saline and added to each assay plate to obtain a final concentration of 5×10^5 CFU/mL. The plates were incubated at 35° C. for 20 hours in ambient air.
(§3) These MIC assays were conducted following the same protocol as set forth in Example 110. As shown, substituted sisomicin derivatives with groups other than methyl at the 6′-position have improved activity against strains expressing the AAC6′-modifying enzymes.

[4] = test system: A. calcoaceticus AACA005, AAC(6′)-I; assay: MIC, aminoglycoside resistant strain; details: Table 3
Protocol: as §2, §3

[5] = test system: E. coli AECO040, AAC(6′)-I; assay: MIC, aminoglycoside resistant strain; details: Table 3
Protocol: as §2, §3

[6] = ATCC25922, Table 2, read-out: MIC E. coli
[7] = Table 1, AECO001 is ATCC25922, read-out: MIC AECO001
[8] = ATCC27853, Table 2, read-out: MIC P. aeruginosa
[9] = ATCC25922, read-out: MIC AECO001, Table 1, AECO001 is ATCC25922
[10] = ATCC27853, read-out: MIC APAE001, Table 1, APAE001 is ATCC27853

Compound | MIC [1, 6] [µg/mL] | MIC [1, 7] [µg/mL] | MIC AECO001 ([1]; ATCC25922) [µg/mL] | MIC [2, 8] [µg/mL] | MIC ASMA003 [3] [µg/mL] | MIC AACA005 [4] [µg/mL] | MIC AECO040 [5] [µg/mL] | MIC [1, 9] [µg/mL] | MIC [2, 10] [µg/mL]
CN[C@@H]1[C@@H](O)[C@@H](O[C@@H]2[C@@H](O)[C@H](O[C@H]3OC(CNCCO)=CC[C@H]3N)[C@@H](N)C[C@H]2NC(=O)[C@@H](O)CN)OC[C@]1(C)O [Example 16, 6′-(2-Hydroxy-ethyl)-1-(3-amino-2(S)-hydroxy-propionyl)-sisomicin] | < 1 | < 1 | 1 (≈ 1.73 µM) | 1 to 16 (≈ 1.73 to 27.6 µM) | 2 (≈ 3.46 µM) | 2 (≈ 3.46 µM) | 1 (≈ 1.73 µM) |  | 
CN[C@@H]1[C@@H](O)[C@@H](O[C@@H]2[C@@H](O)[C@H](O[C@H]3OC(CNCCCN)=CC[C@H]3N)[C@@H](N)C[C@H]2NC(=O)[C@@H](O)CN)OC[C@]1(C)O [Example 17, 6′-(3-Amino-propyl)-1-(3-amino-2(S)-hydroxy-propionyl)-sisomicin] | < 1 | < 1 | 1 (≈ 1.69 µM) | 1 to 16 (≈ 1.69 to 27 µM) | 2 (≈ 3.38 µM) | 2 (≈ 3.38 µM) | 0.5 (≈ 0.845 µM) |  | 
CN[C@@H]1[C@@H](O)[C@@H](O[C@@H]2[C@@H](O)[C@H](O[C@H]3OC(CNCC4CC4)=CC[C@H]3N)[C@@H](N)C[C@H]2NC(=O)[C@@H](O)CN)OC[C@]1(C)O [Example 13, 6′-(Methyl-cyclopropyl)-1-(3-amino-2(S)-hydroxy-propionyl)-sisomicin] |  |  | 1 (≈ 1.7 µM) |  | 2 (≈ 3.4 µM) | 2 (≈ 3.4 µM) | 0.125 (≈ 0.212 µM) | 1 to 16 (≈ 1.7 to 27.2 µM) | > 16
CN[C@@H]1[C@@H](O)[C@@H](O[C@@H]2[C@@H](O)[C@H](O[C@H]3OC(CNCC4CC4)=CC[C@H]3N)[C@@H](N)C[C@H]2NC(=O)[C@@H](O)CCN)OC[C@]1(C)O [Example 18, 6′-(Methyl-cyclopropyl)-1-(4-amino-2(S)-hydroxy-butyryl)-sisomicin] |  |  | 1 (≈ 1.66 µM) |  | 4 (≈ 6.64 µM) | 2 (≈ 3.32 µM) | 0.25 (≈ 0.415 µM) | < 1 | 1 to 16 (≈ 1.66 to 26.5 µM)
CN[C@@H]1[C@@H](O)[C@@H](O[C@@H]2[C@@H](O)[C@H](O[C@H]3OC(CNCC4CCNCC4)=CC[C@H]3N)[C@@H](N)C[C@H]2NC(=O)[C@@H](O)CCN)OC[C@]1(C)O [Example 12, 6′-(Methyl-piperidin-4-yl)-1-(4-amino-2(S)-hydroxy-butyryl)-sisomicin] |  |  | 1 (≈ 1.55 µM) |  | 4 (≈ 6.19 µM) | 2 (≈ 3.1 µM) | 0.5 (≈ 0.774 µM) | 1 to 16 (≈ 1.55 to 24.8 µM) | 1 to 16 (≈ 1.55 to 24.8 µM)
CN[C@@H]1C(O)[C@@H](O[C@@H]2[C@@H](O)[C@H](OC3OC(CN)=CC[C@H]3N)[C@@H](N)C[C@H]2NC(=O)C2(O)CNC2)OC[C@]1(C)O (stereo partly drawn) [Mono-substituted Compound 7, reference compound] |  |  | 1 (≈ 1.83 µM) |  | 16 (≈ 29.3 µM) | 32 (≈ 58.5 µM) | 4 (≈ 7.32 µM) |  | 
